Reference: patent US20250051300A1, “GRAM-NEGATIVE SPECIFIC ANTIBIOTICS SPARING EFFECT ON GUT MICROBIOME” (THE BOARD OF TRUSTEES OF THE UNIVERSITY OF ILLINOIS, priority 2021, published 2025)
Where two headings read alike, the source gives them in different places.

Test system: Klebsiella pneumoniae
Assay: MIC, micro-dilution broth method (CLSI)
Format: cell-based

`Fc1ccc(COc2cccc(-c3n[nH]cc3-c3ccncc3)c2)cc1` [Compound 2, 4-(3-(3-((4-fluorobenzyl)oxy)phenyl)-1H-pyrazol-4-yl)pyridine] showed an MIC (K. pneumoniae AR-0040) greater than 32 µg/mL, an MIC (K. pneumoniae ATCC BAA-1705) greater than 32 µg/mL and an MIC (Klebsiella pneumoniae, ATCC27736, K. pneumoniae ATCC 27736, read-out: MIC) greater than 32 µg/mL. The MIC (Klebsiella pneumoniae, ATCCBAA1705, K. pneumoniae ATCC BAA-1705, read-out: MIC) was greater than 32 µg/mL, the MIC (Klebsiella pneumoniae, ATCCBAA2146, K. pneumoniae ATCC BAA-2146, read-out: MIC) was greater than 32 µg/mL and the MIC (Klebsiella pneumoniae, ATCCBAA2342, K. pneumoniae ATCC BAA-2342, read-out: MIC) was greater than 32 µg/mL. It also gave an MIC (Klebsiella pneumoniae, ATCCBAA2470, K. pneumoniae ATCC BAA-2470, read-out: MIC) greater than 32 µg/mL, an MIC (Klebsiella pneumoniae, ATCCBAA2472, K. pneumoniae ATCC BAA-2472, read-out: MIC) greater than 32 µg/mL and an MIC (Klebsiella pneumoniae, ATCCBAA2473, K. pneumoniae ATCC BAA-2473, read-out: MIC) greater than 32 µg/mL. The MIC (Klebsiella pneumoniae, K. pneumoniae AR0034, read-out: MIC) was greater than 32 µg/mL, the MIC (Klebsiella pneumoniae, K. pneumoniae AR0039, read-out: MIC) was greater than 32 µg/mL and the MIC (Klebsiella pneumoniae, K. pneumoniae AR0041, read-out: MIC) was greater than 32 µg/mL. The MIC (Klebsiella pneumoniae, K. pneumoniae AR0042, read-out: MIC) was greater than 32 µg/mL, the MIC (Klebsiella pneumoniae, K. pneumoniae AR0043, read-out: MIC) was greater than 32 µg/mL and the MIC (Klebsiella pneumoniae, K. pneumoniae AR0044, read-out: MIC) was greater than 32 µg/mL. It also gave an MIC (Klebsiella pneumoniae, K. pneumoniae AR0046, read-out: MIC) greater than 32 µg/mL, an MIC (Klebsiella pneumoniae, K. pneumoniae AR0047, read-out: MIC) greater than 32 µg/mL and an MIC (Klebsiella pneumoniae, K. pneumoniae AR0049, read-out: MIC) greater than 32 µg/mL. For the same compound, the MIC (Klebsiella pneumoniae, K. pneumoniae AR0066, read-out: MIC) was greater than 32 µg/mL, the MIC (Klebsiella pneumoniae, K. pneumoniae AR0068, read-out: MIC) was greater than 32 µg/mL and the MIC (Klebsiella pneumoniae, K. pneumoniae AR0075, read-out: MIC) was greater than 32 µg/mL. It also gave an MIC (Klebsiella pneumoniae, K. pneumoniae AR0076, read-out: MIC) greater than 32 µg/mL, an MIC (Klebsiella pneumoniae, K. pneumoniae AR0079, read-out: MIC) greater than 32 µg/mL and an MIC (Klebsiella pneumoniae, K. pneumoniae AR0080, read-out: MIC) greater than 32 µg/mL. The MIC (Klebsiella pneumoniae, K. pneumoniae AR0087, read-out: MIC) was greater than 32 µg/mL, the MIC (Klebsiella pneumoniae, K. pneumoniae AR0098, read-out: MIC) was greater than 32 µg/mL and the MIC (Klebsiella pneumoniae, K. pneumoniae AR0106, read-out: MIC) was greater than 32 µg/mL. The MIC (Klebsiella pneumoniae, K. pneumoniae AR0107, read-out: MIC) was greater than 32 µg/mL, the MIC (Klebsiella pneumoniae, K. pneumoniae AR0109, read-out: MIC) was greater than 32 µg/mL and the MIC (Klebsiella pneumoniae, K. pneumoniae AR0112, read-out: MIC) was greater than 32 µg/mL. The MIC (Klebsiella pneumoniae, K. pneumoniae AR0113, read-out: MIC) was greater than 32 µg/mL, the MIC (Klebsiella pneumoniae, K. pneumoniae AR0115, read-out: MIC) was greater than 32 µg/mL and the MIC (Klebsiella pneumoniae, K. pneumoniae AR0117, read-out: MIC) was greater than 32 µg/mL. The MIC (Klebsiella pneumoniae, K. pneumoniae AR0120, read-out: MIC) was greater than 32 µg/mL, the MIC (Klebsiella pneumoniae, K. pneumoniae AR0125, read-out: MIC) was greater than 32 µg/mL and the MIC (Klebsiella pneumoniae, K. pneumoniae AR0126, read-out: MIC) was greater than 32 µg/mL. The MIC (Klebsiella pneumoniae, K. pneumoniae AR0129, read-out: MIC) was greater than 32 µg/mL, the MIC (Klebsiella pneumoniae, K. pneumoniae AR0135, read-out: MIC) was greater than 32 µg/mL and the MIC (Klebsiella pneumoniae, K. pneumoniae AR0138, read-out: MIC) was greater than 32 µg/mL. For the same compound, the MIC (Klebsiella pneumoniae, K. pneumoniae AR0139, read-out: MIC) was greater than 32 µg/mL, the MIC (Klebsiella pneumoniae, K. pneumoniae AR0140, read-out: MIC) was greater than 32 µg/mL and the MIC (Klebsiella pneumoniae, K. pneumoniae AR0141, read-out: MIC) was greater than 32 µg/mL. The MIC (Klebsiella pneumoniae, K. pneumoniae AR0142, read-out: MIC) was greater than 32 µg/mL, the MIC (Klebsiella pneumoniae, K. pneumoniae AR0143, read-out: MIC) was greater than 32 µg/mL and the MIC (Klebsiella pneumoniae, K. pneumoniae AR0145, read-out: MIC) was greater than 32 µg/mL. The MIC (Klebsiella pneumoniae, K. pneumoniae AR0146, read-out: MIC) was greater than 32 µg/mL, the MIC (Klebsiella pneumoniae, K. pneumoniae AR0148, read-out: MIC) was greater than 32 µg/mL and the MIC (Klebsiella pneumoniae, K. pneumoniae AR0152, read-out: MIC) was greater than 32 µg/mL. The MIC (Klebsiella pneumoniae, K. pneumoniae AR0153, read-out: MIC) was greater than 32 µg/mL, the MIC (Klebsiella pneumoniae, K. pneumoniae AR0158, read-out: MIC) was greater than 32 µg/mL and the MIC (Klebsiella pneumoniae, K. pneumoniae AR0160, read-out: MIC) was greater than 32 µg/mL. The MIC (Klebsiella pneumoniae, K. pneumoniae AR0347, read-out: MIC) was greater than 32 µg/mL, the MIC (Klebsiella pneumoniae, K. pneumoniae AR0542, read-out: MIC) was greater than 32 µg/mL and the MIC (Klebsiella pneumoniae, K. pneumoniae AR0548, read-out: MIC) was greater than 32 µg/mL. The MIC (Klebsiella pneumoniae, K. pneumoniae AR0550, read-out: MIC) was greater than 32 µg/mL, the MIC (Klebsiella pneumoniae, K. pneumoniae AR0552, read-out: MIC) was greater than 32 µg/mL and the MIC (Klebsiella pneumoniae, K. pneumoniae AR0553, read-out: MIC) was greater than 32 µg/mL. The MIC (Klebsiella pneumoniae, K. pneumoniae AR0554, read-out: MIC) was greater than 32 µg/mL, the MIC (Klebsiella pneumoniae, K. pneumoniae AR0555, read-out: MIC) was greater than 32 µg/mL and the MIC (Klebsiella pneumoniae, K. pneumoniae AR-0040, read-out: MIC) was greater than 32 µg/mL.
